Laboratory results published in ChEMBL document CHEMBL5385896, “Discovery of PIM-1 kinase inhibitors based on the 2,5-disubstituted 1,3,4-oxadiazole scaffold against prostate cancer: Design, synthesis, in vitro and in vivo cytotoxicity investigation” (Eur J Med Chem, 2023).
Values belong to the molecule of their own block, whether it stands above or below them. Calls of active or inactive are those of the source. The rule behind the calls is not given here.

How the values were obtained:
PC-3 [1] = assay: cells; assay type: functional, cell-based; settings: Homo sapiens, PC-3, 48 h
Description: Cytotoxicity against human PC-3 cells assessed as inhibition of cell growth incubated for 48 hrs by MTT assay

HepG2 = assay: Cytotoxicity against human HepG2 cells assessed as inhibition of cell growth incubated for 48 hrs by MTT assay; assay type: functional, cell-based; settings: HepG2, 48 h
MCF7 = assay: cells; assay type: functional, cell-based; settings: Homo sapiens, MCF7, 48 h
Description: Cytotoxicity against human MCF7 cells assessed as inhibition of cell growth incubated for 48 hrs by MTT assay

[2] = Antioxidant activity assessed as DPPH radical scavenging activity incubated for 30 mins; assay type: functional
in vitro = settings: human, RWPE2 cells
Description: Cytotoxicity against human RWPE2 cells assessed as inhibition of cell growth incubated for 48 hrs by MTT assay

[3] = target: Serine/threonine-protein kinase pim-1 (Homo sapiens, UniProt P11309); assay: Inhibition of PIM-1 (unknown origin)
PC-3 [4] = assay: Induction of apoptosis in human PC-3 cells assessed as nuclear condensation at 0.017 uM incubated for 48 hrs by DAPI-staining based confocal microscopic analysis; assay type: functional, cell-based
PC-3 [5] = assay: Induction of apoptosis in human PC-3 cells assessed as fold increase in apoptosis at 0.017 uM incubated for 48 hrs by DAPI-staining based confocal microscopic analysis; assay type: functional
PC-3 [6] = assay: Induction of apoptosis in human PC-3 cells assessed as early apoptotic cells at 0.017 uM incubated for 48 hrs by Annexin V-FITC and PI staining based flow cytometric analysis (reference value: 0.27 %); assay type: functional
PC-3 [7] = assay: Induction of apoptosis in human PC-3 cells assessed as late apoptotic cells at 0.017 uM incubated for 48 hrs by Annexin V-FITC and PI staining based flow cytometric analysis (reference value: 0.18 %); assay type: functional
PC-3 [8] = assay: Induction of apoptosis in human PC-3 cells assessed as necrotic cells at 0.017 uM incubated for 48 hrs by Annexin V-FITC and PI staining based flow cytometric analysis (reference value: 0.77 %); assay type: functional
PC-3 [9] = assay: Induction of apoptosis in human PC-3 cells at 0.017 uM incubated for 48 hrs by Annexin V-FITC and PI staining based flow cytometric analysis relative to control; assay type: functional
PC-3 [10] = assay: Induction of cell cycle arrest in human PC-3 cells assessed as accumulation of cells at PreG1-phase at 0.017 uM incubated for 48 hrs by Annexin V-FITC and PI staining based flow cytometric analysis (reference value: 1.37 %); assay type: functional
PC-3 [11] = assay: Induction of cell cycle arrest in human PC-3 cells assessed as accumulation of cells at G1-phase at 0.017 uM incubated for 48 hrs by Annexin V-FITC and PI staining based flow cytometric analysis (reference value: 44.73 %); assay type: functional
PC-3 [12] = assay: Induction of cell cycle arrest in human PC-3 cells assessed as accumulation of cells at S-phase at 0.017 uM incubated for 48 hrs by Annexin V-FITC and PI staining based flow cytometric analysis (reference value: 42.08 %); assay type: functional
PC-3 [13] = assay: Induction of cell cycle arrest in human PC-3 cells assessed as accumulation of cells at G2/M-phase at 0.017 uM incubated for 48 hrs by Annexin V-FITC and PI staining based flow cytometric analysis (reference value: 13.19 %); assay type: functional
PC-3 [14] = assay: Induction of apoptosis in human PC-3 cells assessed as fold change in p53 gene expression at 0.017 uM incubated for 48 hrs by RT-PCR analysis; assay type: functional
PC-3 [15] = assay: Induction of apoptosis in human PC-3 cells assessed as fold change in PUMA gene expression at 0.017 uM incubated for 48 hrs by RT-PCR analysis; assay type: functional
PC-3 [16] = assay: Induction of apoptosis in human PC-3 cells assessed as fold change in caspase-3 gene expression at 0.017 uM incubated for 48 hrs by RT-PCR analysis; assay type: functional
PC-3 [17] = assay: Induction of apoptosis in human PC-3 cells assessed as fold change in caspase-8 gene expression at 0.017 uM incubated for 48 hrs by RT-PCR analysis; assay type: functional
PC-3 [18] = assay: Induction of apoptosis in human PC-3 cells assessed as fold change in caspase-9 gene expression at 0.017 uM incubated for 48 hrs by RT-PCR analysis; assay type: functional
PC-3 [19] = assay: Induction of apoptosis in human PC-3 cells assessed as fold decrease in BCL-2 gene expression at 0.017 uM incubated for 48 hrs by RT-PCR analysis; assay type: functional
PC-3 [20] = assay: Induction of apoptosis in human PC-3 cells assessed as fold decrease in JAK2 gene expression at 0.017 uM incubated for 48 hrs by RT-PCR analysis; assay type: functional
PC-3 [21] = assay: Induction of apoptosis in human PC-3 cells assessed as fold decrease in STAT3 gene expression at 0.017 uM incubated for 48 hrs by RT-PCR analysis; assay type: functional
[22] = Antioxidant activity assessed as DPPH radical scavenging activity at 100 uM incubated for 30 mins relative to control; assay type: functional
PC-3 [23] = assay: Antitumor activity against human PC-3 cells xenografted in mouse assessed as decrease in body weight loss at 4.2 mg/kg,ip administration; assay type: functional, organism-based
PC-3 [24] = assay: Antitumor activity against human PC-3 cells xenografted in mouse assessed as decrease in tumor mass at 4.2 mg/kg,ip administration; assay type: functional
PC-3 [25] = assay: Antitumor activity against human PC-3 cells xenografted in mouse assessed as decrease in tumor volume at 4.2 mg/kg,ip administration; assay type: functional
PC-3 [26] = assay: Antitumor activity against human PC-3 cells xenografted in mouse assessed as tumor growth inhibition at 4.2 mg/kg,ip administration; assay type: functional; settings: read-out: TGI
PC-3 [27] = assay: Antitumor activity against human PC-3 cells xenografted in mouse assessed as increase in hemoglobin level at 5.2 mg/kg,ip administration (reference value: 2.94 +/- 0.54 g/dl); assay type: functional
PC-3 [28] = assay: Antitumor activity against human PC-3 cells xenografted in mouse assessed as increase in RBC count at 5.2 mg/kg,ip administration (reference value: 2.34 +/- 0.57 10^6/microL); assay type: functional
PC-3 [29] = assay: Antitumor activity against human PC-3 cells xenografted in mouse assessed as decrease in WBC count at 5.2 mg/kg,ip administration (reference value: 4.98 +/- 0.87 10^3/microL); assay type: functional
PC-3 [30] = assay: Antitumor activity against human PC-3 cells xenografted in mouse assessed as decrease in ALT level at 5.2 mg/kg,ip administration (reference value: 81.25 +/- 1.69 I/U); assay type: functional
PC-3 [31] = assay: Antitumor activity against human PC-3 cells xenografted in mouse assessed as decrease in AST level at 5.2 mg/kg,ip administration (reference value: 85.38 +/- 1.59 I/U); assay type: functional
PC-3 [32] = assay: Antitumor activity against human PC-3 cells xenografted in mouse assessed as increase in total protein level at 5.2 mg/kg,ip administration (reference value: 4.01 +/- 0.27 g/dl); assay type: functional
PC-3 [33] = assay: Antitumor activity against human PC-3 cells xenografted in mouse assessed as decrease in liver damage at 5.2 mg/kg,ip administration by; assay type: functional, organism-based
PC-3 [34] = assay: Antitumor activity against human PC-3 cells xenografted in mouse assessed as hepatocyte hydropic degeneration at 5.2 mg/kg,ip administration by; assay type: functional, organism-based
PC-3 [35] = assay: Antitumor activity against human PC-3 cells xenografted in mouse assessed as hepatocyte balloon degeneration at 5.2 mg/kg,ip administration by; assay type: functional, organism-based
[36] = Toxicity in mouse xenografted with human PC-3 cells assessed as lethal dose at ip administration; assay type: organism-based; settings: in vivo
PC-3 [37] = assay: Antitumor activity against human PC-3 cells xenografted in mouse assessed as decrease in tumor mass at 5.2 mg/kg,ip administration; assay type: functional; set-up: scale not given: the % may be the effect or the level left
PC-3 [38] = assay: Antitumor activity against human PC-3 cells xenografted in mouse assessed as decrease in tumor volume at 5.2 mg/kg,ip administration; assay type: functional

Sequence of Serine/threonine-protein kinase pim-1 (P11309 whole entry): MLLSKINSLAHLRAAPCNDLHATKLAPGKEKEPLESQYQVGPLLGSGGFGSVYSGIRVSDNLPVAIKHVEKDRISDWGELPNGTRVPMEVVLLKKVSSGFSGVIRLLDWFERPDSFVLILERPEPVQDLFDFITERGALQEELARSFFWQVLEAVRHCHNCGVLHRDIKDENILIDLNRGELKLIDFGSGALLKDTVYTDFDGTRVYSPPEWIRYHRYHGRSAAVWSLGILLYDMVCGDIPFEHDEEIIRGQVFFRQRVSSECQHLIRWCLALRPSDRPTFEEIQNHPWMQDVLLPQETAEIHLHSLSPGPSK

Compound: Fc1ccc(-c2nnc(-c3ccnc(-c4ccccc4)c3)o2)cc1
IC50 (PC-3 [1]): 2.31 µM
IC50 (HepG2): ≥ 50 µM
IC50 (MCF7): 18.9 µM

Compound: COc1cccc(-c2nnc(-c3ccnc(-c4ccc(C(F)(F)F)cc4)c3)o2)c1
IC50 (PC-3 [1]): 13.2 µM
IC50 (HepG2): ≥ 50 µM
IC50 (MCF7): 12.4 µM

Compound: Fc1cccc(-c2nnc(-c3ccnc(-c4ccc(C(F)(F)F)cc4)c3)o2)c1
IC50 (PC-3 [1]): 0.76 µM
IC50 (HepG2): 6.02 µM
IC50 (MCF7): 70.1 µM
Activity [2]: Dose-Dependent Effect
IC50 at 48 h (in vitro): 31.9 µM

Compound: Clc1cccc(-c2nnc(-c3ccnc(-c4ccccc4)c3)o2)c1
IC50 (PC-3 [1]): 0.016 µM
IC50 (HepG2): 0.13 µM
IC50 (MCF7): 5.37 µM
IC50 [3]: 17 µM
Activity (PC-3 [4]): Active
fold change (FC) (PC-3 [5]): 37.2
Activity (PC-3 [6]): 2.09%
Activity (PC-3 [7]): 17.35%
Activity (PC-3 [8]): 11.9%
Activity (PC-3 [9]): 19.44%
Activity (PC-3 [10]): 26.44%
Activity (PC-3 [11]): 47.36%
Activity (PC-3 [12]): 45.18%
Activity (PC-3 [13]): 7.46%
fold change (FC) (PC-3 [14]): 6.58
fold change (FC) (PC-3 [15]): 3.85
fold change (FC) (PC-3 [16]): 6.98
fold change (FC) (PC-3 [17]): 3.25
fold change (FC) (PC-3 [18]): 8.67
fold change (FC) (PC-3 [19]): 0.45
fold change (FC) (PC-3 [20]): 0.52
fold change (FC) (PC-3 [21]): 0.48
Activity [2]: Dose-Dependent Effect
Activity [22]: 94%
Activity (PC-3 [23]): Active
Activity (PC-3 [24]): 89.4 mg
Activity (PC-3 [25]): 34.1 mm3
inhibition in vivo at 4.2 mg/kg (PC-3 [26]): 64.2%
Activity (PC-3 [27]): 6.89 g/dL
Activity (PC-3 [28]): 4.02 10^6 /uL
Activity (PC-3 [29]): 2.87 10^3 /uL
Activity (PC-3 [30]): 49.8 U/L
Activity (PC-3 [31]): 48.9 U/L
Activity (PC-3 [32]): 5.74 g/dL
Activity (PC-3 [33]): Active
Activity (PC-3 [34]): Active
Activity (PC-3 [35]): Active
LD50 [36]: 4.2 mg/kg
IC50 at 48 h (in vitro): 35.4 µM

Compound: COc1ccc(-c2nnc(-c3ccnc(-c4ccccc4)c3)o2)c(F)c1
IC50 (PC-3 [1]): 2.01 µM
IC50 (HepG2): 13.7 µM
IC50 (MCF7): 20.5 µM

Compound: FC(F)(F)c1ccc(-c2cc(-c3nnc(-c4cccc(Cl)c4)o3)ccn2)cc1
IC50 (PC-3 [1]): ≥ 50 µM
IC50 (HepG2): 3.24 µM
IC50 (MCF7): 10 µM

Compound: FC(F)(F)c1ccc(-c2cc(-c3nnc(-c4ccccc4)o3)ccn2)cc1
IC50 (PC-3 [1]): ≥ 50 µM
IC50 (HepG2): 4.03 µM
IC50 (MCF7): 9.66 µM

Compound: CN[C@@H]1C[C@H]2O[C@@](C)([C@@H]1OC)n1c3ccccc3c3c4c(c5c6ccccc6n2c5c31)C(=O)NC4 [STAUROSPORINE]
IC50 (HepG2): 5.07 µM
Activity (PC-3 [37]): 20%
Activity (PC-3 [38]): 52.9 mm3
Activity (PC-3 [27]): 6.52 g/dL
Activity (PC-3 [28]): 4.95 10^6 /uL
Activity (PC-3 [29]): 2.81 10^3 /uL
Activity (PC-3 [30]): 50.4 U/L
Activity (PC-3 [31]): 47.38 U/L
Activity (PC-3 [32]): 5.39 g/dL

Compound: Fc1cccc(-c2nnc(-c3ccnc(-c4ccccc4)c3)o2)c1
IC50 (PC-3 [1]): 6.21 µM
IC50 (HepG2): 4.31 µM
IC50 (MCF7): 3.8 µM

Compound: Cc1c(C)c2c(c(C)c1O)CCC(C)(C(=O)O)O2 (configuration not stated)
Activity [22]: 96%

Further molecules by falling IC50 (PC-3 [1]), results first:

IC50 (PC-3 [1]): 12.7 µM
IC50 (MCF7): 8.36 µM
IC50 at 48 h (in vitro): 42.6 µM
Compound: c1ccc(-c2cc(-c3nnc(-c4ccccc4)o3)ccn2)cc1
IC50 (HepG2): 13.9 µM

IC50 (PC-3 [1]): 9.31 µM
IC50 (MCF7): 25.7 µM
Compound: COc1ccc(-c2nnc(-c3ccnc(-c4ccc(C(F)(F)F)cc4)c3)o2)cc1
IC50 (HepG2): 3.25 µM

IC50 (PC-3 [1]): 3.21 µM
IC50 (MCF7): 0.75 µM
Compound: COc1cccc(-c2nnc(-c3ccnc(-c4ccccc4)c3)o2)c1
IC50 (HepG2): ≥ 50 µM

IC50 (PC-3 [1]): 0.82 µM
IC50 (MCF7): 13.7 µM
IC50 at 48 h (in vitro): 45.7 µM
Compound: Fc1ccc(-c2nnc(-c3ccnc(-c4ccc(C(F)(F)F)cc4)c3)o2)cc1
IC50 (HepG2): 7.21 µM
Activity [2]: Dose-Dependent Effect

IC50 (PC-3 [1]): 0.56 µM
IC50 (MCF7): 9.7 µM
IC50 at 48 h (in vitro): ≥ 50 µM
Compound: COc1ccc(-c2nnc(-c3ccnc(-c4ccccc4)c3)o2)cc1
IC50 (HepG2): 7.06 µM
Activity [2]: Dose-Dependent Effect
